The record followed here is ChEMBL document CHEMBL2413026, “Synthesis and biological evaluation against Leishmania amazonensis of a series of alkyl-substituted benzophenones” (Bioorg Med Chem, 2013).

The nature of data set [1]: Cytotoxicity against mouse peritoneal macrophages after 72 hrs by MTT assay. It is filed as cell-based, Peritoneal macrophage cell.
The test system of data set [2] is Leishmania amazonensis. The data set is described as follows: Leishmanicidal activity against promastigote form of Leishmania amazonensis MHOM/BR/71973/M2269 after 72 hrs by cell counting. The settings on record: MHOM/BR/71973/M2269, 72 h. Format: functional, organism-based.
The nature of data set [3]: Selectivity index, ratio of CC50 for mouse peritoneal macrophages to IC50 for promastigote form of Leishmania amazonensis MHOM/BR/71973/M2269. It is filed as functional.
The test system of data set [4] is Leishmania amazonensis. The data set is described as follows: Ratio of 4,4'-dihydroxybenzophenone IC50 to compound IC50 for spromastigote forms of Leishmania amazonensis MHOM/BR/71973/M2269 after 72 hrs by cell counting. It is filed as functional.

Values after ≈ are worked out from the molar mass of the structure shown. Where only a bound is given, the exact number is not on record here.

With `O=C(c1ccccc1)c1ccc(O)cc1O` [2,4-DIHYDROXYBENZOPHENONE], in data set [1], the CC50 (as a rule, the concentration giving 50% cytotoxicity) at 72 h is greater than 160 µg/mL. In addition, the IC50 (usually the midpoint of a concentration-inhibition curve) with Leishmania amazonensis [2] came to 29 µg/mL (≈ 135 µM).

The molecule `C[C@@H]1[C@H](O)[C@@H](C)/C=C/C=C/C=C/C=C/C=C/C=C/C=C/[C@H](O[C@@H]2O[C@H](C)[C@@H](O)[C@H](N)[C@@H]2O)C[C@@H]2O[C@](O)(C[C@@H](O)C[C@@H](O)[C@H](O)CC[C@@H](O)C[C@@H](O)CC(=O)O[C@H]1C)C[C@H](O)[C@H]2C(=O)O` [AMPHOTERICIN B] gave a CC50 at 72 h in data set [1] of 25 µg/mL (≈ 27.1 µM). For the same molecule, the “Ratio CC50/IC50” value in data set [3] came to 5.32. The IC50 with Leishmania amazonensis [2] was found to be 4.7 µg/mL (≈ 5.09 µM).

Take `CC(C)=CCOc1ccc(C(=O)c2ccccc2)cc1`: in data set [1], it took 87.1 µg/mL (≈ 327 µM) to reach half-maximal cytotoxicity (CC50 at 72 h). For the same molecule, the midpoint of inhibition with Leishmania amazonensis [2], the IC50, lay at 7.82 µg/mL (≈ 29.4 µM).

Turning to `COc1ccc(C(=O)c2ccccc2)cc1`, the CC50 at 72 h in data set [1] was 28 µg/mL (≈ 132 µM). Moreover, the IC50 in the data set on Leishmania amazonensis [2] stood at 5.05 µg/mL (≈ 23.8 µM).

Molecule `CCCCOc1ccc(C(=O)c2ccccc2)c(O)c1` had a CC50 at 72 h in data set [1] of 40.6 µg/mL (≈ 150 µM). Also, half-maximal inhibition in the data set with Leishmania amazonensis [2] (IC50) required 9.8 µg/mL (≈ 36.3 µM).

`O=C(c1ccc(O)cc1)c1ccc(O)cc1`: in data set [1], the CC50 at 72 h is greater than 160 µg/mL. This molecule gave an IC50 in the data set with Leishmania amazonensis [2] of 121 µg/mL (≈ 567 µM).

The molecule `CCCCOc1ccc(C(=O)c2ccc(OCCCC)cc2)cc1` registered a CC50 at 72 h in data set [1] greater than 160 µg/mL. In the data set on Leishmania amazonensis [2], this molecule showed an IC50 of 23.8 µg/mL (≈ 72.9 µM).

Molecule `CCCCOc1ccc(C(=O)c2ccccc2)cc1` displayed a CC50 at 72 h in data set [1] of 28.9 µg/mL (≈ 114 µM). In addition, in the data set on Leishmania amazonensis [2], the IC50 stood at 8.56 µg/mL (≈ 33.7 µM).

As to `CC(C)=CCOc1ccc(C(=O)c2ccc(OCC=C(C)C)cc2)cc1`, in data set [1], the CC50 at 72 h is greater than 160 µg/mL. Also, the “Ratio IC50” value in the data set with Leishmania amazonensis [4] is listed as 250. Further, in data set [3], the “Ratio CC50/IC50” value is 26.93. In addition, in the data set with Leishmania amazonensis [2], inhibition was half-maximal at 5.94 µg/mL (≈ 16.9 µM) (IC50).

In data set [1], `CC(C)=CCOc1ccc(C(=O)c2ccccc2)c(O)c1` returned a CC50 at 72 h of 140 µg/mL (≈ 496 µM). In addition, the “Ratio CC50/IC50” value in data set [3] came out at 19.86. For the same molecule, the IC50 with Leishmania amazonensis [2] was 7.05 µg/mL (≈ 25 µM).

`COc1ccc(C(=O)c2ccccc2)c(O)c1` [OXYBENZONE] had a CC50 at 72 h in data set [1] of 24.6 µg/mL (≈ 108 µM). In the data set on Leishmania amazonensis [2], this molecule registered an IC50 of 4.9 µg/mL (≈ 21.5 µM).

`O=C(c1ccccc1)c1ccc(O)cc1`: the CC50 at 72 h in data set [1] was greater than 160 µg/mL. In the data set with Leishmania amazonensis [2], the IC50 was determined as 40.9 µg/mL (≈ 206 µM).

In data set [1], `N=C(N)c1ccc(OCCCCCOc2ccc(C(=N)N)cc2)cc1` [PENTAMIDINE] returned a 50% cytotoxic concentration (CC50) at 72 h of 3.82 µg/mL (≈ 11.2 µM). Further, the “Ratio CC50/IC50” value in data set [3] came to 8.68. Moreover, 0.44 µg/mL (≈ 1.29 µM) corresponded to half-maximal inhibition in the data set on Leishmania amazonensis [2] (IC50).
